Reference: US12410355B2, “Compositions and methods for carbon dioxide solidification” (CHEVRON U.S.A. INC., priority 2022, dated 2025)

Assays:
[1] = Solubility limit (Ksp) of GBIG in NaCl brine; type: physicochemical; conditions: 25° C., 20 minutes of sonication
Method: Solubility limit Ksp at 25° C. and 20 minutes of sonication. Solubility limit strongly depends on salinity: nonlinear dependence.

[2] = GBIG·(HCO3)2(H2O)2(s) precipitation upon contacting with CO2(g); type: physicochemical; conditions: CO2 gas 0.5 psig, 30 minutes
Method: GBIG·(HCO3)2(H2O)2(s) Precipitation Upon Contacting with CO2(g)
Pour approximately 5 ml of the synthesized chemical solution into the polycarbonate reservoir. Open the CO2 gas cylinder valve and take note of the pressure. Open the delivery valve of the regulator. Increase the delivery pressure to 0.5 psig by turning the regulator knob. Open the 3-way valve connected to the bottom of the polycarbonate reservoir to initiate CO2 gas flow into the reservoir. Watch for precipitation in the liquid through the transparent polycarbonate reservoir wall for 30 minutes. For temperature dependence testing: Samples were placed in ovens at temperature of interest for 30 minutes, then used in the procedure detailed above.
Results for the precipitation test for varying salinity and glyoxal-bis(iminoguanidine) (GBIG) concentration are shown in Tables 2-4 and FIGS. 3A-3C. Table 2 and FIG. 3A show results for 1 wt % NaCl and 0.397 wt % GBIG. Table 3 and FIG. 3B show results for 0.1 wt % NaCl and 0.243 wt % GBIG. Table 4 and FIG. 3C show results for 20 wt % NaCl and 0.064 wt % GBIG.

## N=C(N)NN=CC=NNC(=N)N [GBIG, glyoxal-bis(iminoguanidine)]
[1]; 0.1 wt % NaCl
  GBIG Ksp: 0.0143
  Solubility limit, GBIG (wt %): 0.243 wt %
[1]; 1 wt % NaCl
  GBIG Ksp: 0.0234
  Solubility limit, GBIG (wt %): 0.397 wt %
[1]; 20 wt % NaCl
  GBIG Ksp: 0.0038
  Solubility limit, GBIG (wt %): 0.064 wt %
[2]; 0.1 wt % NaCl and 0.243 wt % GBIG, 25° C.
  Precipitation?: Yes
[2]; 0.1 wt % NaCl and 0.243 wt % GBIG, 65° C.
  Precipitation?: Yes
[2]; 0.1 wt % NaCl and 0.243 wt % GBIG, 80° C.
  Precipitation?: Yes
[2]; 0.1 wt % NaCl and 0.243 wt % GBIG, 100° C.
  Precipitation?: Yes
[2]; 0.1 wt % NaCl and 0.243 wt % GBIG, 115° C.
  Precipitation?: Yes
[2]; 1 wt % NaCl and 0.397 wt % GBIG, 25° C.
  Precipitation?: Yes
[2]; 1 wt % NaCl and 0.397 wt % GBIG, 65° C.
  Precipitation?: Yes
[2]; 1 wt % NaCl and 0.397 wt % GBIG, 80° C.
  Precipitation?: Yes
[2]; 1 wt % NaCl and 0.397 wt % GBIG, 100° C.
  Precipitation?: Yes
[2]; 1 wt % NaCl and 0.397 wt % GBIG, 115° C.
  Precipitation?: Yes
[2]; 20 wt % NaCl and 0.064 wt % GBIG, 25° C.
  Precipitation?: Yes
[2]; 20 wt % NaCl and 0.064 wt % GBIG, 65° C.
  Precipitation?: Yes
[2]; 20 wt % NaCl and 0.064 wt % GBIG, 80° C.
  Precipitation?: Yes
[2]; 20 wt % NaCl and 0.064 wt % GBIG, 100° C.
  Precipitation?: Yes
[2]; 20 wt % NaCl and 0.064 wt % GBIG, 115° C.
  Precipitation?: Yes
